According to patent US20240246918A1, “COMPOUNDS AND COMPOSITIONS AS EIF4E INHIBITORS AND THE USES THEREOF” (Ribometrix, Inc., priority 2022, published 2024):

How the values were obtained:
human eIF4E protein = molecular target: T1, human eIF4E protein (Homo sapiens, UniProt P06730); assay: Biochemical competitive binding assay (TR-FRET competition, EDA-m7GDP-ATTO-647N probe); conditions: read-out: hEIF4E TR-FRET IC50
T1 construct: purchased Novus NBP-45314
How it was run: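 IC50 values come from 4-parameter fits of the normalized 665/620 nm TR-FRET ratio. Compound was first incubated 15 min with 4 nM recombinant His-eIF4E bound to 2.5 nM Eu-anti-His antibody, then 15 min with 5 nM m7GDP-ATTO-647N tracer, in pH 7.5 HEPES buffer with 100 mM KCl, Tween-20 and BSA.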

[1] = system: cap-dependent translation in Flp-In-293 reporter cells; assay: Cellular cap-dependent translation inhibition assay (dual luciferase assay, DLA; Fluc/Rluc ratio, 24 hours); format: cell-based; conditions: Homo sapiens, Flp-In-293, 24 h, dual luciferase assay, Flp-In-293 reporter cells, 24 hours, Fluc/Rluc ratio; read-out: DLA 205 IC50
[2] = system: COLO 205 colorectal tumor cells; assay: Tumor cell viability inhibition assay (CellTiter-Glo 2.0, 72 hours); format: cell-based; conditions: Homo sapiens, COLO 205, 72 h, COLO 205 cell viability
How it was run: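 IC50 derived by 4-parameter fitting after normalizing luminescence to DMSO and max-inhibition wells. Compounds tested as 11 concentrations in 4-fold steps on COLO 205 cells seeded at 1500 per well in RPMI-1640/10% FBS; ATP content measured with CellTiter-Glo 2.0 after 72 h.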

T1 sequence (P06730 whole entry): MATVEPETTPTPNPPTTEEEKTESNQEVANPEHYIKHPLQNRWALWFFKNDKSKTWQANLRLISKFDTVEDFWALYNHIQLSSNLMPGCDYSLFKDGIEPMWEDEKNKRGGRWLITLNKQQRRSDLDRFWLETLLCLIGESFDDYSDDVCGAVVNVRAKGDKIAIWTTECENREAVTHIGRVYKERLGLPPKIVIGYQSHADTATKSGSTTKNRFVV

| IC50 (human eIF4E protein) [µM] | IC50 [2] [µM] | Compound | IC50 [1] [µM] |
| --- | --- | --- | --- |
| 0.5 to 5 | > 20 | Cc1cc(-c2cc(Cl)ccc2OCCn2c(C)nc3c(c2=O)CC(N(C)C2CC2)CC3)c2c(n1)c(C(=O)NS(C)(=O)=O)cn2C (stereo not drawn) [Compound 272] | > 5 |
| < 0.1 | < 5 | Cc1cc(-c2cc(Cl)ccc2OCCn2c(C)nc3c(c2=O)CC(N(C)C2CN(CC(F)(F)F)C2)CC3)c2scc(C(=O)O)c2n1 (stereo not drawn) [Compound 64, 7-[5-chloranyl-2-[2-[2-methyl-6-[methyl-[1-[2,2,2-tris(fluorenyl)ethyl]azetidin-3-yl]amino]-4-oxidanylidene-5,6,7,8-tetrahydroquinazolin-3-yl]ethoxy]phenyl]-5-methyl-thieno[3,2-b]pyridine-3-carboxylic acid; 2,2,2-tris(fluorenyl)acetic acid] | < 1 |
| < 0.1 | < 5 | Cc1cc(-c2cc(Cl)ccc2OCCn2c(C)nc3c(c2=O)C[C@@H](N2CC[C@@H](F)C2)CC3)c2scc(C(=O)NS(C)(=O)=O)c2n1 (single isomer, unassigned) [Compound 312] | < 1 |
| < 0.1 | < 5 | Cc1nc2c(c(=O)n1CC#Cc1ccc(Cl)cc1-c1ccnc3c(C(=O)O)csc13)CC(N1CCCCC1)CC2 (single isomer, unassigned) [Compound 298] | < 1 |
| < 0.1 | < 5 | Cc1nc2c(c(=O)n1CC#Cc1ccc(Cl)cc1-c1ccnc3c(C(=O)O)csc13)C[C@@H](N1CC[C@H](F)C1)CC2 (single isomer, unassigned) [Compound 293] | < 1 |
| < 0.1 | < 5 | Cc1cc(-c2cc(Cl)ccc2OCCn2c(C)nc3c(c2=O)CC(N(C)C2CC(F)(F)C2)CC3)c2scc(C(=O)NS(C)(=O)=O)c2n1 (stereo not drawn) [Compound 63] | < 1 |
| 0.5 to 5 | > 20 | Cc1cc(-c2cc(Cl)ccc2OCCn2c(C)nc3c(c2=O)CC(N2CC(F)(F)C2)CC3)c2sccc2n1 (single isomer, unassigned) [Compound 340] | > 5 |
| < 0.1 | < 5 | Cc1nc2c(c(=O)n1CC#Cc1ccc(Cl)cc1-c1ccnc3c(C(=O)NS(C)(=O)=O)csc13)CC(N1CCCCC1)CC2 (single isomer, unassigned) [Compound 315] | < 1 |
| < 0.1 | < 5 | Cc1cc(-c2cc(Cl)ccc2OCCn2c(C)nc3c(c2=O)CC(N(C)C2CC(F)(F)C2)CC3)c2scc(C(=O)O)c2n1 (stereo not drawn) [Compound 40, 7-[2-[2-[6-[[3,3-bis(fluorenyl)cyclobutyl]-methyl-amino]-2-methyl-4-oxidanylidene-5,6,7,8-tetrahydroquinazolin-3-yl]ethoxy]-5-chloranyl-phenyl]-5-methyl-thieno[3,2-b]pyridine-3-carboxylic acid; 2,2,2-tris(fluorenyl)acetic acid] | < 1 |
| < 0.1 | > 20 | Cc1cc(-c2cc(Cl)ccc2OCCn2c(C)nc3c(c2=O)CC(N(C)C(=O)C2CCN(CC(F)(F)F)CC2)CC3)c2scc(C(=O)O)c2n1 (stereo not drawn) [Compound 71] | > 5 |
| < 0.1 | > 20 | Cc1cc(-c2cc(Cl)ccc2OCCn2c(C)nc3c(c2=O)CC(N(C)c2ccncc2)CC3)c2scc(C(=O)O)c2n1 (stereo not drawn) [Compound 47, 7-[5-chloranyl-2-[2-[2-methyl-6-[methyl(4-pyridyl)amino]-4-oxidanylidene-5,6,7,8-tetrahydroquinazolin-3-yl]ethoxy]phenyl]-5-methyl-thieno[3,2-b]pyridine-3-carboxylic acid; 2,2,2-tris(fluorenyl)acetic acid] | > 5 |
| < 0.1 | > 20 | Cc1cc(-c2cc(Cl)ccc2OCCn2c(C)nc3c(c2=O)CC(N(C)C(=O)C2CCN(CC(F)(F)F)CC2)CC3)c2scc(C(=O)NS(C)(=O)=O)c2n1 (stereo not drawn) [Compound 82] | 1 to 5 |
